# Experimental data as given in PubChem BioAssay AID489027 (Sanford-Burnham Center for Chemical Genomics, 2010).
# pEC50: −log10 of the molar value. Calls of active or inactive are those of the source. The rule behind the calls is not given here.
# Target: UPR counterscreen luciferase reporter, luminescence
# Assay: activators in UPR counterscreen luciferase reporter, dose response, counter-screen for adaptive UPR activator project, cell-based, luminescence (AID 489027)
SMILES,EC50,pEC50
COc1ccc(Nc2nc(N)c([N+](=O)[O-])c(NC3CCCCC3)n2)cc1,> 80 µM (inactive),–
CCN(CC)S(=O)(=O)c1ccc2c(c1)C(=NO)c1cc(S(=O)(=O)N(CC)CC)ccc1-2,> 80 µM (inactive),–
CN1C(=O)/C(=C/c2ccc(C(=O)NC3CCCC3)cc2)Oc2ccccc21,> 80 µM (inactive),–
NS(=O)(=O)c1ccc(N/N=C/c2cn(-c3ccccc3)nc2-c2ccccc2)c([N+](=O)[O-])c1,–,5.13
CC1(C)CC[C@@]23CC[C@]4(C)[C@@](OC2=O)(C3C1)[C@H]1O[C@H]1C1[C@@]2(C)CC[C@H](O)C(C)(C)C2CC[C@]14C (some centres undefined),inactive,–
CCOc1cc(/C=N/N=C(/N)c2nonc2N)cc(Br)c1OCc1ccc(Cl)cc1,> 80 µM (inactive),–
CCN(CC)c1ccc(-c2nn3c(-c4ccccc4OC)nnc3s2)cc1,inactive,–
Cc1ccc(N2CCN(c3ccc(NCc4nc5ccccc5n4C)cc3)CC2)cc1,inactive,–
Cc1ccc(-c2nnn(CC(=O)Nc3ccc(S(=O)(=O)N4CCC(C)CC4)cc3)n2)cc1,inactive,–
